From patent publication US20110306071A1, “Compositions and Methods for Identifying Substrate Specificity of Inhibitors of Gamma Secretase” (ELAN PHARMACEUTICALS, INC., priority 2007, published 2011)

What was measured:
[1] = target: T1, gamma secretase cleavage of C99GVP (AICD-GVP) (Homo sapiens, UniProt P49768); assay: Luciferase reporter gene assay, AICD-GVP transactivation from C99GVP in HEK293 cells; assay type: cell-based; details: C99-GVP, FIG. 5C
T1 construct: active gamma secretase is endogenously and constitutively produced by the cell cultures; endogenous in cells; host or cells: HEK 293, co-transfected with C99GVP, pG5E1B-luc and pCMV-β-gal
Protocol: Luciferase Reporter Gene Assay: Luciferase reporter assays were carried out 48 hr post-transfection. Cells seeded on 96-well plates (BD Biosciences) were washed once with PBS and harvested in 20 μl of reporter lysis buffer (Promega) per well. After adding 100 μl of luminescent substrate (Promega), the luciferase activity was measured with a MicroLumatPlus microplate luminometer (Berthold Technologies). The β-galactosidase activity was measured similarly, using a luminescent β-galactosidase substrate (BD Biosciences). As a control for transfection efficiency and general effect on transcription, the luciferase activity was normalized by measuring β-galactosidase activity on a duplicate plate. All measurements were done in triplicate and repeated at least three times.
Luciferase Assay. After confirming AICD-GVP generation in HEK cells, its ability to transactivate a luciferase reporter gene that contains Gal4 response elements in the upstream activation sequence (UAS) was tested. […] Some residual luciferase activity remained in the presence of excess gamma secretase inhibitors, even though identical treatment completely abolished AICD production as measured by Western blot (FIG. 5B). […]

[2] = system: nuclear AICD-GVP in COS-7 cells; assay: Immunostaining, subcellular distribution of AICD-GVP in transfected COS-7 cells; assay type: cell-based
Protocol: Immunostaining: Wild type or transiently transfected COS-7 cells (ATCC) were fixed at room temperature with 2% paraformaldehyde in PBS for 20 min and subsequently permeabilized with 0.2% Triton X-100 in PBS for 10 min. C99GVP and mutant substrates as well as AICD-GVP were detected by incubating the samples sequentially with polyclonal anti-VP16 for 2 h and Rhodamine-conjugated donkey anti-goat secondary antibody (Jackson Laboratory Cat. #705-165-003) for 1 h. All staining was visualized on a Bio-Rad MRC 1024ES confocal microscope (Bio-Rad) and captured with a coupled CCD camera.

[3] = target: T2, gamma secretase γ and ε cleavage of Fas-APPsw-DD (Homo sapiens, UniProt P49768); assay: Concurrent Aβ and AICD ELISA in Fas-APPsw-DD transfected 293 cells (APP γ versus ε cleavage); assay type: cell-based
T2 construct: active gamma secretase is endogenously and constitutively produced by the cell cultures; endogenous in cells; host or cells: HEK 293, transfected with Fas-APPsw-DD
Protocol: Polyclonal antibody AICD ELISA. HEK 293 cells were grown under standard conditions to ˜90% confluence. Cells were harvested, counted, and subsequently plated onto PDL-coated 60 mm dishes at 2×10^6 cells/dish in 5 mL media. The cells were allowed to settle onto the dishes for ˜4 hours. Transfection of various construct into cells was performed using standard techniques using Lipofectamine 2000™ (LF2K) (Invitrogen). Briefly, 2 μg plasmid DNA and 4 μL LF2K were diluted into separate 150 μL aliquots of Opti-MEM (Gibco), and allowed to stand for 10-15 minutes. The two aliquots were then mixed, and the DNA:Lipid complex allowed to form for about 20 minutes. The 300 μL DNA:Lipid complex was then added to the cells in 3 mL fresh media, and incubated overnight. In order to administer potential or known gamma secretase inhibitor compounds to cells, the transfected cells were harvested, replated into PDL-coated 24-well plates at 200,000 cells/well, and allowed to settle onto the plates for ˜4 hours. Cells were washed, and 500 μL fresh media added. […]
The term ‘non-selective’ in this instance refers to lack of selectivity for cell Aβ over Notch signaling (or GammaAPP over GammaNotch). […] The calculated γ/ε selectivity of the non-selective compounds (FIG. 11 and Table I) were 0.7, 1.1, 1.8 and 1.9 for DAPT, 44989, 46719 and the Merck compound, respectively. […]

[4] = system: gamma secretase (secreted Aβ40 and Aβ42); assay: Aβ sandwich ELISA of media from C99GVP or APP transfected HEK cells treated with inhibitors; assay type: cell-based, Human
Protocol: Inhibitor Treatment of Transfected HEK Cell: The transition state analogue gamma secretase inhibitor-L685,458 (Sigma) and the peptidomimetic inhibitor-DAPT (Dovey, H. F., et al., J Neurochem., 2001; 76:173-181) were dissolved in DMSO to make 20 mM stocks. Similarly, a number of Elan's series of sulfonamide inhibitors were prepared and used as described herein (see, also FIGS. 11-14). Inhibitors were added to cell cultures (e.g., HEK) at the indicated final concentration, and the treated cells were harvested 48 h post-transfection. The metallo-proteinase inhibitor TAPI-1 (Calbiochem) was used at a final concentration of 40 μM. The Aβ-degrading enzyme inhibitors, Bacitracin (Calbiochem) and phosphoramidon (Calbiochem) were used at final concentration of 1 mg/ml and 40 μM, respectively. All inhibitor experiments were performed in triplicate and repeated at least three times.
ELISAs used to quantify different Aβ species were performed using standard techniques as described above and in (Johnson-Wood, K., et al., Proc. Natl. Acad. Sci. U.S.A., 1997; 94: 1550-1555, incorporated by reference). The Aβ40 and Aβ42 peptides in the samples were captured onto 2G3 or 21F12 antibody coated plates, respectively, and detected with a biotinylated 2H3 antibody. The fluorescence signal generated from a streptavidin-alkaline phosphatase conjugate (Roche) was measured with a CytoFlour microplate reader (Applied Biosystems). Synthetic Aβ40 or Aβ42 peptides (Anaspec) were used to generate standard curves (FIG. 10). All measurements were done in triplicate.
Next, Aβ generation was characterized from C99GVP. Wild type HEK cells and the mock-transfection control secreted little Aβ into the conditioned media (FIG. 5D, lane 1). In contrast, transient expression of C99GVP led to robust Aβ production, as measured by IP/Western blot (FIG. 5D) and ELISAs that detect Aβ 40 and Aβ42 species, respectively ([…], top panel). […] Finally, we compared the Aβ-lowering potency of two inhibitors, using either C99GVP or the wild type APP as substrate. As determined by ELISA, the respective IC50 values for the two substrates are essentially identical (FIG. 5E).

C[C@H](NC(=O)Cc1cc(F)cc(F)c1)C(=O)N[C@H](C(=O)OC(C)(C)C)c1ccccc1 [DAPT]
luciferase reporter transactivation by AICD-GVP [1]: block luciferase reporter transactivation | nuclear staining of AICD-GVP ([2]; C99GVP transfected COS-7 cells, 5 μM, FIG. 5F): abolished | nuclear staining of JMD chimeras ([2]; JMD chimeras in COS-7 cells, FIG. 6G): abolished | γ/ε selectivity = IC50 AICD/IC50 Aβ [3]: 0.7 | secreted Aβ (Aβ40 and Aβ42) ([4]; 5 μM, 24 h, FIG. 5D): block secreted Aβ | Aβ potency (IC50) with C99GVP versus native APP substrate ([4]; FIG. 5E): equal Aβ potency
